{
  "source": "patent US10138275B2",
  "about": "“Crystalline powder of cyclic peptide compound, preparation method for same, and uses thereof” (SHANGHAI TECHWELL BIOPHARMACEUTICAL CO., LTD, priority 2014, dated 2018)",
  "note": "Starred links: 1 amine or outer side, 2 acyl side, 3 side chain; linkers in the order of their positions; H or OH if unused. Positions of bridges follow the written chain, without caps; N, C: chain ends. Non-standard residues stand in square brackets, D forms with d. Residues, ends and D or L forms follow the SMILES beside them. *: point of attachment. hTyr(3S-OH,4S-OH,3'-OSO3H) = N[C@H](C(=O)O)[C@H](O)[C@@H](O)c1ccc(O)c(OS(=O)(=O)O)c1; Orn(4R-OH,5R-OH) = O=C([C@H](C[C@@H](O)[C@@H](O)N[*:3])N[*:1])[*:2]; Pro(3S-OH,4S-Me) = C[C@H]1CN[C@H](C(=O)O)[C@H]1O; X1 = CCCCCOc1ccc(-c2cc(-c3ccc(C(=O)*)cc3)no2)cc1; Gln(3R-OH) = NC(=O)C[C@@H](O)[C@H](N)C(=O)O; Hyp = O=C(O)[C@@H]1C[C@@H](O)CN1",
  "data": [
    {"assay": "Ratio of dry weight to wet weight (Dry/Wet) of filtered solids", "format": "physicochemical", "settings": "wet solids weighed after filtration, before drying", "text": "As used herein, the term “Dry/Wet” and “ratio of dry weight to wet weight” can be used interchangeably, both of which refer to the ratio of the weight of a compound without solvent(s) to the weight of the compound with solvent(s). In the present invention, wet weight of crystals is obtained by filtering the crystallized solids until no noticeable droplet outflows and weighing the solids.", "values": [
      {"molecule": "CCCCCOc1ccc(-c2cc(-c3ccc(C(=O)N[C@H]4C[C@@H](O)[C@@H](O)NC(=O)[C@@H]5[C@@H](O)[C@@H](C)CN5C(=O)[C@H]([C@H](O)CC(N)=O)NC(=O)[C@H]([C@H](O)[C@@H](O)c5ccc(O)c(OS(=O)(=O)[O-])c5)NC(=O)[C@@H]5C[C@@H](O)CN5C(=O)[C@H]([C@@H](C)O)NC4=O)cc3)no2)cc1.[Na+]", "note": "[Comparative Example 5] (X1-[Orn(4R-OH,5R-OH)]T[Hyp][hTyr(3S-OH,4S-OH,3'-OSO3H)][Gln(3R-OH)][Pro(3S-OH,4S-Me)]; lactam 1-C)", "ratio of dry weight to wet weight (Dry/Wet)": 0.18},
      {"molecule": "CCCCCOc1ccc(-c2cc(-c3ccc(C(=O)N[C@H]4C[C@@H](O)[C@@H](O)NC(=O)[C@@H]5[C@@H](O)[C@@H](C)CN5C(=O)[C@H]([C@H](O)CC(N)=O)NC(=O)[C@H]([C@H](O)[C@@H](O)c5ccc(O)c(OS(=O)(=O)[O-])c5)NC(=O)[C@@H]5C[C@@H](O)CN5C(=O)[C@H]([C@@H](C)O)NC4=O)cc3)no2)cc1.[Na+]", "note": "[Comparative Example 14] (X1-[Orn(4R-OH,5R-OH)]T[Hyp][hTyr(3S-OH,4S-OH,3'-OSO3H)][Gln(3R-OH)][Pro(3S-OH,4S-Me)]; lactam 1-C)", "ratio of dry weight to wet weight (Dry/Wet)": 0.19},
      {"molecule": "CCCCCOc1ccc(-c2cc(-c3ccc(C(=O)N[C@H]4C[C@@H](O)[C@@H](O)NC(=O)[C@@H]5[C@@H](O)[C@@H](C)CN5C(=O)[C@H]([C@H](O)CC(N)=O)NC(=O)[C@H]([C@H](O)[C@@H](O)c5ccc(O)c(OS(=O)(=O)[O-])c5)NC(=O)[C@@H]5C[C@@H](O)CN5C(=O)[C@H]([C@@H](C)O)NC4=O)cc3)no2)cc1.[Na+]", "note": "[Comparative Example 10] (X1-[Orn(4R-OH,5R-OH)]T[Hyp][hTyr(3S-OH,4S-OH,3'-OSO3H)][Gln(3R-OH)][Pro(3S-OH,4S-Me)]; lactam 1-C)", "ratio of dry weight to wet weight (Dry/Wet)": 0.23},
      {"molecule": "CCCCCOc1ccc(-c2cc(-c3ccc(C(=O)N[C@H]4C[C@@H](O)[C@@H](O)NC(=O)[C@@H]5[C@@H](O)[C@@H](C)CN5C(=O)[C@H]([C@H](O)CC(N)=O)NC(=O)[C@H]([C@H](O)[C@@H](O)c5ccc(O)c(OS(=O)(=O)[O-])c5)NC(=O)[C@@H]5C[C@@H](O)CN5C(=O)[C@H]([C@@H](C)O)NC4=O)cc3)no2)cc1.[Na+]", "note": "[Comparative Example 9] (X1-[Orn(4R-OH,5R-OH)]T[Hyp][hTyr(3S-OH,4S-OH,3'-OSO3H)][Gln(3R-OH)][Pro(3S-OH,4S-Me)]; lactam 1-C)", "ratio of dry weight to wet weight (Dry/Wet)": 0.09},
      {"molecule": "CCCCCOc1ccc(-c2cc(-c3ccc(C(=O)N[C@H]4C[C@@H](O)[C@@H](O)NC(=O)[C@@H]5[C@@H](O)[C@@H](C)CN5C(=O)[C@H]([C@H](O)CC(N)=O)NC(=O)[C@H]([C@H](O)[C@@H](O)c5ccc(O)c(OS(=O)(=O)[O-])c5)NC(=O)[C@@H]5C[C@@H](O)CN5C(=O)[C@H]([C@@H](C)O)NC4=O)cc3)no2)cc1.[Na+]", "note": "[Comparative Example 4] (X1-[Orn(4R-OH,5R-OH)]T[Hyp][hTyr(3S-OH,4S-OH,3'-OSO3H)][Gln(3R-OH)][Pro(3S-OH,4S-Me)]; lactam 1-C)", "ratio of dry weight to wet weight (Dry/Wet)": 0.19},
      {"molecule": "CCCCCOc1ccc(-c2cc(-c3ccc(C(=O)N[C@H]4C[C@@H](O)[C@@H](O)NC(=O)[C@@H]5[C@@H](O)[C@@H](C)CN5C(=O)[C@H]([C@H](O)CC(N)=O)NC(=O)[C@H]([C@H](O)[C@@H](O)c5ccc(O)c(OS(=O)(=O)[O-])c5)NC(=O)[C@@H]5C[C@@H](O)CN5C(=O)[C@H]([C@@H](C)O)NC4=O)cc3)no2)cc1.[Na+]", "note": "[Comparative Example 15] (X1-[Orn(4R-OH,5R-OH)]T[Hyp][hTyr(3S-OH,4S-OH,3'-OSO3H)][Gln(3R-OH)][Pro(3S-OH,4S-Me)]; lactam 1-C)", "ratio of dry weight to wet weight (Dry/Wet)": 0.15},
      {"molecule": "CCCCCOc1ccc(-c2cc(-c3ccc(C(=O)N[C@H]4C[C@@H](O)[C@@H](O)NC(=O)[C@@H]5[C@@H](O)[C@@H](C)CN5C(=O)[C@H]([C@H](O)CC(N)=O)NC(=O)[C@H]([C@H](O)[C@@H](O)c5ccc(O)c(OS(=O)(=O)[O-])c5)NC(=O)[C@@H]5C[C@@H](O)CN5C(=O)[C@H]([C@@H](C)O)NC4=O)cc3)no2)cc1.[Na+]", "note": "[Comparative Example 8] (X1-[Orn(4R-OH,5R-OH)]T[Hyp][hTyr(3S-OH,4S-OH,3'-OSO3H)][Gln(3R-OH)][Pro(3S-OH,4S-Me)]; lactam 1-C)", "ratio of dry weight to wet weight (Dry/Wet)": 0.15},
      {"molecule": "CCCCCOc1ccc(-c2cc(-c3ccc(C(=O)N[C@H]4C[C@@H](O)[C@@H](O)NC(=O)[C@@H]5[C@@H](O)[C@@H](C)CN5C(=O)[C@H]([C@H](O)CC(N)=O)NC(=O)[C@H]([C@H](O)[C@@H](O)c5ccc(O)c(OS(=O)(=O)[O-])c5)NC(=O)[C@@H]5C[C@@H](O)CN5C(=O)[C@H]([C@@H](C)O)NC4=O)cc3)no2)cc1.[Na+]", "note": "[Comparative Example 7] (X1-[Orn(4R-OH,5R-OH)]T[Hyp][hTyr(3S-OH,4S-OH,3'-OSO3H)][Gln(3R-OH)][Pro(3S-OH,4S-Me)]; lactam 1-C)", "ratio of dry weight to wet weight (Dry/Wet)": 0.2},
      {"molecule": "CCCCCOc1ccc(-c2cc(-c3ccc(C(=O)N[C@H]4C[C@@H](O)[C@@H](O)NC(=O)[C@@H]5[C@@H](O)[C@@H](C)CN5C(=O)[C@H]([C@H](O)CC(N)=O)NC(=O)[C@H]([C@H](O)[C@@H](O)c5ccc(O)c(OS(=O)(=O)[O-])c5)NC(=O)[C@@H]5C[C@@H](O)CN5C(=O)[C@H]([C@@H](C)O)NC4=O)cc3)no2)cc1.[Na+]", "note": "[Comparative Example 12] (X1-[Orn(4R-OH,5R-OH)]T[Hyp][hTyr(3S-OH,4S-OH,3'-OSO3H)][Gln(3R-OH)][Pro(3S-OH,4S-Me)]; lactam 1-C)", "ratio of dry weight to wet weight (Dry/Wet)": 0.18},
      {"molecule": "CCCCCOc1ccc(-c2cc(-c3ccc(C(=O)N[C@H]4C[C@@H](O)[C@@H](O)NC(=O)[C@@H]5[C@@H](O)[C@@H](C)CN5C(=O)[C@H]([C@H](O)CC(N)=O)NC(=O)[C@H]([C@H](O)[C@@H](O)c5ccc(O)c(OS(=O)(=O)[O-])c5)NC(=O)[C@@H]5C[C@@H](O)CN5C(=O)[C@H]([C@@H](C)O)NC4=O)cc3)no2)cc1.[Na+]", "note": "[Comparative Example 6] (X1-[Orn(4R-OH,5R-OH)]T[Hyp][hTyr(3S-OH,4S-OH,3'-OSO3H)][Gln(3R-OH)][Pro(3S-OH,4S-Me)]; lactam 1-C)", "ratio of dry weight to wet weight (Dry/Wet)": 0.21},
      {"molecule": "CCCCCOc1ccc(-c2cc(-c3ccc(C(=O)N[C@H]4C[C@@H](O)[C@@H](O)NC(=O)[C@@H]5[C@@H](O)[C@@H](C)CN5C(=O)[C@H]([C@H](O)CC(N)=O)NC(=O)[C@H]([C@H](O)[C@@H](O)c5ccc(O)c(OS(=O)(=O)[O-])c5)NC(=O)[C@@H]5C[C@@H](O)CN5C(=O)[C@H]([C@@H](C)O)NC4=O)cc3)no2)cc1.[Na+]", "note": "[Comparative Example 13] (X1-[Orn(4R-OH,5R-OH)]T[Hyp][hTyr(3S-OH,4S-OH,3'-OSO3H)][Gln(3R-OH)][Pro(3S-OH,4S-Me)]; lactam 1-C)", "ratio of dry weight to wet weight (Dry/Wet)": 0.2},
      {"molecule": "CCCCCOc1ccc(-c2cc(-c3ccc(C(=O)N[C@H]4C[C@@H](O)[C@@H](O)NC(=O)[C@@H]5[C@@H](O)[C@@H](C)CN5C(=O)[C@H]([C@H](O)CC(N)=O)NC(=O)[C@H]([C@H](O)[C@@H](O)c5ccc(O)c(OS(=O)(=O)[O-])c5)NC(=O)[C@@H]5C[C@@H](O)CN5C(=O)[C@H]([C@@H](C)O)NC4=O)cc3)no2)cc1.[Na+]", "note": "[Comparative Example 11] (X1-[Orn(4R-OH,5R-OH)]T[Hyp][hTyr(3S-OH,4S-OH,3'-OSO3H)][Gln(3R-OH)][Pro(3S-OH,4S-Me)]; lactam 1-C)", "ratio of dry weight to wet weight (Dry/Wet)": 0.11}
    ]}
  ]
}
